Experimental data taken from US7723373B2, “Indole-3-sulphur derivatives” (AstraZeneca AB, priority 2002, dated 2010).

Biological target: T1, rhCRTh2 (Homo sapiens, UniProt Q9Y5Y4)
T1 construct: expressed in transfected cells; host or cells: HEK cells (membrane preparation)
T1 sequence (Q9Y5Y4 1-395): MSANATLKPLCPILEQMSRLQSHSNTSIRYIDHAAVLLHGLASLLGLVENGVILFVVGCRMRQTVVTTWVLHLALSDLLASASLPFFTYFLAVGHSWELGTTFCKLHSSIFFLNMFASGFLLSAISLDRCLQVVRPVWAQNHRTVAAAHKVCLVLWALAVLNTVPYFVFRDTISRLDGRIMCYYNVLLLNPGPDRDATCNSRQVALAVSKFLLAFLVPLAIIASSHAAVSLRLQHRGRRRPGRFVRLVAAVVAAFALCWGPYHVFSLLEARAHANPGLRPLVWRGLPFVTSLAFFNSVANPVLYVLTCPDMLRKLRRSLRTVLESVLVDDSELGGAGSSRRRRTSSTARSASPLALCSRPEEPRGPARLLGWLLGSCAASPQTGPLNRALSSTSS
Experiment: Ligand binding assay ([3H]PGD2 SPA, HEK cell membranes)
Details: [3H]PGD2 binding to membranes of HEK cells expressing rhCRTh2/Gα16, SPA beads, 2 hours at room temperature
Method: [^3H]PGD2 was purchased from Perkin Elmer Life Sciences with a specific activity of 100-210 Ci/mmol. All other chemicals were of analytical grade.
HEK cells expressing rhCRTh2/Gα16 were routinely maintained in DMEM containing 10% Fetal Bovine Serum (HyClone), 1 mg/ml geneticin, 2 mM L-glutamine and 1% non-essential amino acids. For the preparation of membranes, the adherent transfected HEKcells were grown to confluence in two layer tissue culture factories (Fisher, catalogue number TKT-170-070E). Maximal levels of receptor expression were induced by addition of […] sodium butyrate for the last 18 hours of culture. The adherent cells were washed once with phosphate buffered saline (PBS, 50 ml per cell factory) and detached by the addition of 50 ml per cell factory of ice-cold membrane homogenisation buffer [20 mM HEPES (pH 7.4), 0.1 mM dithiothreitol, 1 mM EDTA, 0.1 mM phenyl methyl sulphonyl fluoride and 100 μg/ml bacitracin]. […] The final pellet was re-suspended in 4 ml of membrane homogenisation buffer per cell factory used and the protein content determined. […]
All assays were performed in Corning clear bottomed, white 96-well NBS plates (Fisher). […] (The optimum coating concentrations were determined for each batch of membranes) The beads were pelleted by centrifugation (800×g for 7 minutes at 4° C.), washed once with assay buffer (50 mM HEPES pH 7.4 containing 5 mM magnesium chloride) and finally re-suspended in assay buffer at a bead concentration of 10 mg/ml.
Each assay contained 20 μl of 6.25 nM [^3]PGD2, 20 μl membrane saturated SPA beads both in assay buffer and 10 μl of compound solution or 13,14-dihydro-15-keto prostaglandin D2 (DK-PGD2, for determination of non-specific binding Cayman chemical company). […] The assay plate was incubated at room temperature for 2 hours and counted on a Wallac Microbeta liquid scintillation counter (1 minute per well).

| pIC50 | IC50 [nM] | Compound |
| --- | --- | --- |
| 7 | – | 5-chloro-3-[(4-chlorophenyl)sulfonyl]-6-cyano-2-methyl-1H-indole-1-acetic acid [Example 6] |
| – | 251 | Cc1ccc2c(c1)c([S+]([O-])c1ccc(Cl)cc1)c(C)n2CC(=O)O (stereo not drawn) [Example 7, 3-[(4-chlorophenyl)sulfinyl]-2,5-dimethyl-1H-indole-1-acetic acid] |
| – | 7.94 | Cc1c(S(=O)(=O)c2ccc(Cl)cc2)c2cc(Cl)ccc2n1CC(=O)O [Example 2, 5-chloro-3-[(4-chlorophenyl)sulfonyl]-2-methyl-1H-indole-1-acetic acid] |
